From patent US20240418723A1, “SEQUENTIAL TREATMENTS AND BIOMARKERS TO REVERSE RESISTANCE TO KINASE INHIBITORS” (Queen Mary University of London, priority 2021, published 2024)

Assays:
[1] = test system: AML cell lines; assay: Small-scale drug screens: epigenetic antagonist 5 days followed by kinase inhibitor 3 days, cell viability/proliferation, CDI; format: cell-based
Experimental: The Bliss independence model was used to derive coefficients of drug interaction (CDI) values, where CDI <1 indicates significant priming by the […] (synergistic effect).
For the proliferation/viability assays, cells were seeded in T75 flasks (0.5×10^6 cells/mL of RPMI/FBS medium) and exposed for 5 days to either vehicle or epigenetic modifier. Unless otherwise specified, the final concentration for GSK2879552 (LSD1i), […] (EZH2i), pinometostat (DOT1Li) and ATRA was 1 μM while for decitabine (DNMTAi) and vorinostat (HDACi) was 100 nM; all epigenetic inhibitors were diluted in DMSO, while ATRA was diluted in Et-OH. Vehicle concentration was kept at 0.1%. […] The final concentration of DMSO was kept at 0.1%. Finally, cells were transferred to 96-well plates (100 μL per well in 3 technical replicates per condition) and cell viability and proliferation were assessed using Guava and ApoTox-Glo Triplex analyses, as indicated below.
For Guava analysis, cells were stained with Guava ViaCount reagent (Luminex #4000-0040) in 96-well plates, by mixing 150 μL of cell suspension with 75 μL of reagent, and left to incubate for a minimum of 10 minutes in the dark, after which they were processed through a Guava easyCyte flow cytometer (Luminex #0500-5005). Flow cytometry data were analysed using CytoSoft (v2.5.7). […]

[2] = test system: CD34-positive human haematopoietic cells; assay: FACS analysis of healthy CD34-positive haematopoietic cells after LSD1i and MEKi sequential treatment; format: cell-based
Description: We next tested whether the LSD1i->MEKi sequential treatment may be affecting healthy human haematopoietic (CD34-positive) cells. We observed an increase in the expression of differentiation markers, such as CD11b and CD14, but no effect on the proportion of CD34-positive cells as a result of treatment with LSD1i (FIG. 11, A to C).
Umbilical cord bloods were purchased from Anthony Nolan. Mononuclear cells (MNCs) were isolated by Ficoll prior red blood cells (RBC) lysis buffer (BioLegend, catalog #420301). Cells were then stained with CD34 immunomagnetic positive selection kit (EasySep™ Human CD34 Positive Selection Kit II, StemCell technologies, catalog #17856, according to manufacturer instructions). Purity of CD34^+ cells isolated from MNCs was assessed by flow cytometry prior to long term storage in liquid nitrogen. For AML samples, patients gave informed consent for the storage and use of their blood cells for research purposes. Experiments were performed in accordance with the Local Research Ethics Committee, as previously described. Mononuclear cells from peripheral blood or bone marrow biopsies were isolated in the BCI tissue bank facility and stored in liquid nitrogen.
For the establishment of the feeder layer, MS-5 cells were plated onto 6-well plates (for the co-culture with CD34+ cord blood cells) or 96-well plates (for the co-culture with primary AML cells) at a density of 5-10,000 cells/cm^2 (48,000 cells for each well of a 6-well plate, or 3,200 cells for each well of a 96-well plate) with IMDM medium. Cells were then incubated at 37° C. for 48 hours, or until a confluency of approximately 70% was reached, after which they were irradiated with an X-ray source at 680 cGy. Following irradiation, the growth medium was removed and replaced with complete H5100 medium, and cell were incubated at 37° C. for a further 24 hours.
Following recovery, cord blood-derived CD34+ cells or primary AML cells were added to the plates containing the established MS-5 feeder layers. CD34+ cells were added at a density of 20,000 cells/well of a 6-well plate, whilst primary AML cells were added at 8,300 cells/well of a 96-well plate. Cells were then left to incubate at 37° C. and to recover for 4 days, after which treatments were started. […] Following treatment, CD34+ cells were harvested by collecting culture medium in FACS tubes. Adherent cells were detached by briefly incubating with trypsin-EDTA, then also added to the respective FACS tubes. Cells were centrifuged at 300×g for 8 minutes, the supernatant was removed and cells were resuspended in 1 mL PBS+2% FBS, then processed for FACS analysis as described below. For primary AML, cells were resuspended and transferred to separate 96-well plates, after which they were processed for Guava ViaCount analysis, as described below. […]

[3] = results of clinical trials; unselected AML patient populations; cited from earlier work
[4] = LSD1i 5 days, healthy CD34-positive cells co-cultured with MS5 (FIG. 11)

O=C(O)c1ccc(CN2CCC(CN[C@@H]3C[C@H]3c3ccccc3)CC2)cc1 [GSK2879552]
number of AML cell lines sensitised to midostaurin, pictilisib or trametinib ([1]; LSD1i pre-treatment, out of the 12 AML cell lines tested (FIG. 2D)): 9 | -Log2 CDI (coefficient of drug interaction), sensitisation to kinase inhibitor treatment ([1]; epigenetic antagonist 5 days, then MEK, mTOR or PKC inhibitor 3 days, cell viability, Bliss independence, CDI <1 = synergistic (FIG. 2C)): one of the most potent sensitisers to kinase inhibitor treatment | effect on normal stem/progenitor cell compartment ([2]; LSD1i 5 days then MEKi 3 days): preserved the normal stem/progenitor cell compartment | apoptosis (Annexin V) in healthy haematopoietic cells ([2]; LSD1i 5 days then MEKi 3 days, mostly restricted to the more mature CD34-negative cells (FIG. 11D, 12)): increased apoptosis | expression of differentiation markers, such as CD11b and CD14 [2, 4]: increase | proportion of CD34-positive cells [2, 4]: no effect | clinical tolerability as single agent [3]: has side effects
